# Assays:
# inflammation factors = experiment: Serum inflammation factors by ELISA in rats with MSU-induced acute gout; type: in vivo, Wistar rats; conditions: for 6-Keto-PGF1α / IFN-γ / IL-1α / IL-1β / IL-6 / IL-8 / IL-10 / IL-16 / IP-10 / MCP-1 / MIP-1α / NF-κB / PGE2 / TNF-α / TNF-β: serum, MSU-induced acute gout rats, mean ± S.D., n=10
# Experimental: An experimental model of MSU-induced gouty arthritis was used in order to evaluate the anti-inflammatory activities of BHA. Rats were randomly divided into five groups (n=10), include a control group (NC), a model group (MC), a 0.3 mg/kg colchicine group (COL), a 10 μg BHA group (10BHA) and a 50 μg BHA group (50BHA). MSU crystals were suspended in 0.9% sterile saline (30 mg/mL) prior to use. The colchicine group rats were orally administrated colchicine (0.3 mg/kg) for 8 days, and all rats except for the control group were injected with 3 mg of MSU (Sigma, USA) at the 6th day into the right ankle synovial space 1 h after gavage feeding. Meanwhile a turbid sample of MSU mixed with 100 μg of BHA or 500 μg of BHA per mL of solution for 10BHA rats or 50BHA rats. At the 8th day, 1 h after the administration of the final agents, blood was sampled from the caudal veins of the rats and the right ankle joints of the rats were collected and fixed in 4% paraformaldehyde. Serum was separated and stored at −80° C. prior to analysis (FIG. 2A, E).
# The serum levels of interleukin-1α (IL-1α, 41734), IL-1β (43360), interleukin-6 (IL-6, 41731), interleukin-8 (IL-8, 41716), IL-10 (41736), interleukin-16 (IL-16, 41628), C—X—C motif chemokine 10 (CXCL10, 41570), monocyte chemoattractant protein 1 (MCP-1, 41640), macrophage inflammatory protein 1α (MIP-1α, 41645), interferon gamma (IFN-γ, 41739), TNF-α (41721), tumor necrosis factor-β (TNF-β, 41673), nuclear factor κ-light-chain-enhancer of activated B cells (NF-κB, 43358), 6-keto-prostaglandin F-1α (6-Keto-PGF1α, 41809) and prostaglandin E2 (PGE2, 41609) in rats were determined by the ELISA method using related Elisa Kits (Yuanye Bio-Technology Co. Ltd, Shanghai, China) according to the manufacturer's instructions.
# xanthine oxidase (XO) = experiment: XO levels in serum and liver of hyperuricemic mice; type: in vivo, Balb/C mice
# Experimental: Due to the presence of uricase in mice, a hyperuricemic mouse model was established by using uricase inhibitor and large amounts of purine. Mice were randomly divided into five groups (n=10), including the control group (NC), model group (MC), 20 mg/kg of AL (Shimao Tianjie Pharmaceutical Co. Ltd, Jiangsu, China) group, 10 μg BHA group (10BHA) and 50 μg BHA group (50BHA). Oral administration of AL and intraperitoneal injection of BHA were administered according to the required dose, and all mice were gavage fed 20 g/kg yeast extract powder 12 h prior to the administration of AL and BHA except for NC mice for 8 days. From the 6th to 8th day, 1-h prior to AL and BHA administration, 300 mg/kg of OXO (Sigma, USA) was intraperitoneally injected to all of the mice except those in the control group. At 1 h after the final drug administration, blood was sampled from caudal veins of the mice, serum was separated and their livers were quickly collected (FIG. 3A, E). All samples were stored at −80° C. until assay measurements were performed.
# The serum UA concentrations and XO levels in the serum and liver were determined with a standard diagnostic kit (MAK077, MAK078 Sigma, USA) according to the manufacturer's instructions.
# [1] = system: rats with MSU-induced gouty arthritis; experiment: Dose screening on MSU crystals-induced acute gout in rats: ankle swelling ratio; type: in vivo, Wistar rats; conditions: P<0.05
# Experimental: 48 male Wistar rats (8 weeks: 180-200 g), purchased from Yisi Experimental Animal Technology Company Ltd, Jilin, China (SCXK (Ji)-2016-0003), were housed in plastic cages and maintained on a 12-h light/12-h dark cycle (lights on 7:00-19:00 h) under standard laboratory conditions of 55% relative humidity and 23° C.±1° C. They were given standard chow and tap water ad libitum. All experimental procedures were approved by the Animal Ethics Committee of Jilin University (Reference NO. 201605).
# An experimental model of MSU-induced gouty arthritis was used in order to evaluate the anti-inflammatory activities of BHA similar as previous studies with some modifications. Rats were randomly divided into eight groups (n=6), including control group (NC), model group (MC), 0.3 mg/kg colchicine group (COL), 5 μg BHA group (5BHA), 10 μg BHA group (10BHA), 25 μg BHA group (25BHA), 50 μg BHA group (50BHA), 100 μg BHA group (100BHA). MSU crystals were suspended in 0.9% sterile saline (30 mg/mL) prior to use. Rats in the colchicine group were orally administered colchicine (0.3 mg/kg) for 8 days. At day 6, MSU solution (100 μL of 30 mg/mL) was intra-articular injected at the right ankles of all rats except the NC group m which were injected with saline solution. 5BHA, 10BHA, 25BHA, 50BHA and 100BHA groups received intra-articular injections of 5, 10, 25, 50, or 100 μg BHA along with MSU solution (100 μL of 30 mg/mL MSU solution contains 5, 10, 25, 50 or 100 μg BHA) were administered according to the stated BHA doses.
# The right ankle circumference of all rats at 0, 4, 12, 24 and 48 h after MSU injection was measured. The swelling ratio (%) was used for evaluating the gouty arthritis and calculated according to the change of the circumference following the formula: Swelling ratio (%)=(Ct−C0)/C0. Wherein, Ct represented the circumference at t hour and C0 represented the circumference at 0 hour.
# [2] = 10 μg BHA intra-articular with MSU (10BHA)
# [3] = 50 μg BHA intra-articular with MSU (50BHA)
substance,measurement,setting,value
N-butyrylated HA [BHA],decrease of serum IL-8 compared to rats injected with MSU,"inflammation factors; 10 μg BHA, P<0.05",7.13%
same,decrease of serum MCP-1 compared to rats injected with MSU,"inflammation factors; 10 μg BHA, P<0.05",7.76%
same,increase of serum IL-10 compared to rats injected with MSU,"inflammation factors; 10 μg BHA, P<0.05",9.49%
same,decrease of serum IFN-γ compared to rats injected with MSU,"inflammation factors; 50 μg BHA, P<0.05",33.18%
same,decrease of serum IL-1β compared to rats injected with MSU,"inflammation factors; 50 μg BHA, P<0.05",5.56%
same,decrease of serum IL-8 compared to rats injected with MSU,"inflammation factors; 50 μg BHA, P<0.05",6.55%
same,decrease of serum MCP-1 compared to rats injected with MSU,"inflammation factors; 50 μg BHA, P<0.05",15.58%
same,6-Keto-PGF1α,inflammation factors; [2],257 ± 20.8
same,IFN-γ,inflammation factors; [2],107.4 ± 7.6 pg/mL
same,IL-1α,inflammation factors; [2],71.5 ± 11.2 pg/mL
same,IL-1β,inflammation factors; [2],19.6 ± 1.6 pg/mL
same,IL-6,inflammation factors; [2],78.5 ± 5.6 pg/mL
same,IL-8,inflammation factors; [2],213.8 ± 11.4 pg/mL
same,IL-10,inflammation factors; [2],12 ± 0.9 pg/mL
same,IL-16,inflammation factors; [2],399.3 ± 14.8 pg/mL
same,IP-10,inflammation factors; [2],154.3 ± 18^ pg/mL
same,MCP-1,inflammation factors; [2],321.2 ± 20.5 pg/mL
same,MIP-1α,inflammation factors; [2],282.8 ± 23.6 pg/mL
same,NF-κB,inflammation factors; [2],589.8 ± 104. pg/mL
same,PGE2,inflammation factors; [2],209.7 ± 17.3 pg/mL
same,TNF-α,inflammation factors; [2],155.9 ± 11.4 pg/mL
same,TNF-β,inflammation factors; [2],139.1 ± 25.7 pg/mL
same,6-Keto-PGF1α,inflammation factors; [3],262 ± 10.8
same,IFN-γ,inflammation factors; [3],75.4 ± 31.7 pg/mL
same,IL-1α,inflammation factors; [3],77.4 ± 13 pg/mL
same,IL-1β,inflammation factors; [3],18.8 ± 0.8 pg/mL
same,IL-6,inflammation factors; [3],75 ± 5.3 pg/mL
same,IL-8,inflammation factors; [3],216.6 ± 11.6 pg/mL
same,IL-10,inflammation factors; [3],11.6 ± 1.1 pg/mL
same,IL-16,inflammation factors; [3],401.2 ± 25.1 pg/mL
same,IP-10,inflammation factors; [3],150.5 ± 7.5 pg/mL
same,MCP-1,inflammation factors; [3],292 ± 27.8 pg/mL
same,MIP-1α,inflammation factors; [3],283.9 ± 12.7 pg/mL
same,NF-κB,inflammation factors; [3],513 ± 74.1 pg/mL
same,PGE2,inflammation factors; [3],193.2 ± 12.7 pg/mL
same,TNF-α,inflammation factors; [3],152.7 ± 12.1 pg/mL
same,TNF-β,inflammation factors; [3],129 ± 21.9 pg/mL
same,reduction of XO levels in the liver compared to untreated mice,"xanthine oxidase (XO); 10 μg BHA, P<0.05",19.78%
same,XO activity in the livers of hyperuricemic mice,xanthine oxidase (XO); 50 μg BHA,no significant effect on XO activity
same,swelling of the ankle compared to MSU treated group,"[1]; n=6, BHA 5-100 μg intra-articular, at 4 h and 12 h",significantly suppressed swelling
same,swelling of the ankle compared to MSU treated group,"[1]; n=6, BHA at doses of 10 μg, 50 μg and 100 μg, at 48 h",significant suppressing of swelling effect

# — patent US11679123B2, “N-acylated hyaluronic acid for hyperuricemia and gouty arthritis” (Queen's University at Kingston, priority 2018, dated 2023)
